Laboratory results as given in patent US9682940B2, “Indazole derivatives useful as CB-1 inverse agonists” (Janssen Pharmaceutica NV, priority 2015, dated 2017).

What was measured:
[1] = molecular target: Human CB1R (Cannabanoid receptor 1) (Homo sapiens (Human), UniProt P21554); assay: CB-1 in vitro cAMP (HTRF) assay in HEK-293 cells; format: cell-based; settings: HEK-293 cells stably transfected with human CB1R, 250 nM Forskolin, mean where tested more than once, read-out: CB-1 (HEK_cAMP) EC50
Excerpt: (§1) CB1 and CB2 receptors are Gi-coupled GPCR. Activation of CB1 and CB2 receptors results in a decrease in cAMP production. An inverse agonist of the CB1 or CB2 receptor results in the opposite effect, an increase of cAMP production. The principle of this assay is based on HTRF® technology (Homogeneous Time-Resolved Fluorescence). The method is a competitive immunoassay between native cAMP produced by cells and the cAMP labeled with the fluorophore d2. The tracer binding is quantified by a Mab anti-cAMP labeled with Eu3+TBP-NHS Cryptate (supplied as part of the assay kit). The specific signal (i.e. energy transfer) is inversely proportional to the concentration of cAMP in the standard or sample.
(§2) Human CB1R (Cannabanoid receptor 1) was stably transfected in HEK-293 cells (DiscoveRx, cat: 93-0200C1). Human CB2R (Cannabanoid receptor 2) was stably transfected in HEK-293 cells (DiscoveRx, cat: 93-0201C1). Cell cultures were maintained in media: DMEM (Invitrogen Cat#12430-054) supplemented with 10% HI FBS (Invitrogen Cat#16140-071), 1% L-glutamine (Invitrogen Cat#25030-081), 0.2 mg/ml Hygromycin B (Invitrogen Cat#10687-010), 600 μg/mL G418 (Invitrogen Cat#10131-035), and 1× Penn/Strep (Invitrogen 15140-122). After cell expansion, aliquots were cryo-stored in media containing 5% DMSO (Pierce Cat#20684).
(§3) One day prior to experiments media was warmed to 37° C. and the cryo-stored cells were thawed in a 37° C. water bath. The cells were then added to media (10× volume) and the mixture was centrifugated at 1000 RPM for 5 min. The supernate was removed and the cells were re-suspended in media. A sample of the cell suspension was evaluated on a Cedex XS automated cell counter (Innovatis Systems) to determine viable cells/ml. Additional media was added to the cells to achieve a final cell density of 4E5 cells/mL. The cells were then plated into 384 well PDL white solid bottom plates (Greiner, Cat#781945) at 20 μL per well using a Multidrop (Thermo Scientific). Cells were removed from Row P (location of cAMP standards). Two columns of cells were plated into a clear bottom 384 well PDL coated plate (Greiner, Cat#781944) to view confluence the day of the assay. The cell plates were lidded and stored for 15 minutes in a hood, then transferred to an incubator (37° C., 5% CO2, 95% humidity) overnight.
(§4) DMSO was added to all wells of 384 well V bottom polystyrene plate (Greiner, Cat#781280) except to columns 1 and 13, rows O and P and wells M13-M23 and N13-N23. Test compounds (60 μL, 10 mM) were added to Column 1 and 13 (A1 through N1 and A13 through L13). Test compounds were serially diluted 1/3 by transferring and mixing 20 μl sample with 40 μL DMSO.
(§5) DMSO (40 μL) was added to wells of 384 well V bottom polystyrene plate: O2 through O11, M14 through M23, N14 through N23, and O14 through 023. AM630 (also known as [6-iodo-2-methyl-1-[2-(4-morpholinyl)ethyl]-1H-indol-3-yl](4-methoxyphenyl)-methanone, Cayman Chemical, Cat#10006974) (60 μL, 10 mM) was added to 01; and 1-(2,4-dichlorophenyl)-7-[(4-fluorophenyl)methylene]-4,5,6,7-tetrahydro-N-1-piperidinyl-1H-indazole-3-carboxamide (60 μL, 10 mM) was added to N13. The control was serially diluted 1/3 by transferring and mixing 20 μl sample with 40 μL DMSO. This process resulted 11 doses per control, 10 mM to […].
(§6) Cells plated the day prior to the assay in clear bottom plates were viewed on an inverse microscope to ensure confluency in the range of 60-75%. […]

[2] = molecular target: Human CB2R (Cannabanoid receptor 2) (Homo sapiens (Human), UniProt P34972); assay: CB-2 in vitro cAMP (HTRF) assay in HEK-293 cells; format: cell-based; settings: HEK-293 cells stably transfected with human CB2R, 250 nM Forskolin, mean where tested more than once, read-out: CB-2 (HEK_cAMP) EC50
Excerpt: as §1, §2, §3, §4, §5, §6

Chain of Human CB2R (Cannabanoid receptor 2) (P34972 whole entry): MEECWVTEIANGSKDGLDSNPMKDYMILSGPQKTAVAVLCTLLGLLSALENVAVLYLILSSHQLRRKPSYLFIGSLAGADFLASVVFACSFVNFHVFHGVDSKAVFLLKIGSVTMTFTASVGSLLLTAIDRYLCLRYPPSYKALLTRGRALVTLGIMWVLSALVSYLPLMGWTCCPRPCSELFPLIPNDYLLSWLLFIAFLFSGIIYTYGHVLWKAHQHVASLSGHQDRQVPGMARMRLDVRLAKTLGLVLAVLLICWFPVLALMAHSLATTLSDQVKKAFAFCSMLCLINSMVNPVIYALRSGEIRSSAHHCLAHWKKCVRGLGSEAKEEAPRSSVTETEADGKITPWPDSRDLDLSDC
Chain of Human CB1R (Cannabanoid receptor 1) (P21554 whole entry): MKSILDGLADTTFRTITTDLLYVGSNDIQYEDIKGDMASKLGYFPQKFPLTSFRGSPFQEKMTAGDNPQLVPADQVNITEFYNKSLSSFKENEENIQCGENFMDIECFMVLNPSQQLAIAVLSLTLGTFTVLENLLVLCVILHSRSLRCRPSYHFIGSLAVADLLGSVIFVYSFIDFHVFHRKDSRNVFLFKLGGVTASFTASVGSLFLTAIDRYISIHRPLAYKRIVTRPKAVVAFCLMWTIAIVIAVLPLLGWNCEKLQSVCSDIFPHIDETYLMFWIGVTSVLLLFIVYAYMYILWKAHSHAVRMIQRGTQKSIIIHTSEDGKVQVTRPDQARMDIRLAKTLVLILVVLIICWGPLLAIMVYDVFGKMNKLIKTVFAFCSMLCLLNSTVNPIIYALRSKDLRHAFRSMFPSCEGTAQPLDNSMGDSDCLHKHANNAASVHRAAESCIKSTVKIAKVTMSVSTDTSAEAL

EC50 [1] [nM] | EC50 [2] [nM] | SMILES
7 | > 10000 | NC(=O)c1ccc(C(=O)N2CCC(c3nn(C4CC4)c4ccc(C(c5ccc(Cl)cc5)c5ccc(Cl)cc5)cc34)CC2)cc1 [Compound 104]
8 | > 10000 | O=S(=O)(N1CCC(c2nn(C3CC3)c3ccc(C(c4ccc(Cl)cc4)c4ccc(Cl)cc4)cc23)CC1)C(F)(F)F [Compound 105]
9200 | > 10000 | O=C(O)CCS(=O)(=O)N1CCC(c2nn(C3CC3)c3ccc(C(c4ccc(Cl)cc4)c4ccc(Cl)cc4)cc23)CC1 [Compound 106]
920 | > 10000 | O=C(O)CCC(=O)N1CCC(c2nn(C3CC3)c3ccc(C(c4ccc(Cl)cc4)c4ccc(Cl)cc4)cc23)CC1 [Compound 107]
37 | > 10000 | O=C(CCO)N1CCC(c2nn(C3CC3)c3ccc(C(c4ccc(Cl)cc4)c4ccc(Cl)cc4)cc23)CC1 [Compound 108]
729 | > 10000 | O=C(O)CCS(=O)(=O)N1CCC(c2nn(C3CC3)c3ccc(C(c4ccc(Cl)cc4)c4ccc(Cl)cc4)cc23)CC1 [Compound 109]
134 | > 10000 | O=C(CO)N1CCC(c2c3cc(C(c4ccc(Cl)cc4)c4ccc(Cl)cc4)ccc3nn2C2CC2)CC1 [Compound 110]
3500 | > 10000 | O=C(O)c1cccc(C(=O)N2CCC(c3c4cc(C(c5ccc(Cl)cc5)c5ccc(Cl)cc5)ccc4nn3C3CC3)CC2)c1 [Compound 111]
62 | > 10000 | NC(=O)c1cccc(C(=O)N2CCC(c3c4cc(C(c5ccc(Cl)cc5)c5ccc(Cl)cc5)ccc4nn3C3CC3)CC2)c1 [Compound 112]
4240 | > 10000 | O=C(O)c1ccc(C(=O)N2CCC(c3c4cc(C(c5ccc(Cl)cc5)c5ccc(Cl)cc5)ccc4nn3C3CC3)CC2)cc1 [Compound 113]
283 | 9900 | NC(=O)c1ccc(C(=O)N2CCC(c3c4cc(C(c5ccc(Cl)cc5)c5ccc(Cl)cc5)ccc4nn3C3CC3)CC2)cc1 [Compound 114]
1010 | > 10000 | NC(=O)CS(=O)(=O)N1CCC(c2nn(C3CC3)c3ccc(C(c4ccc(Cl)cc4)c4ccc(Cl)cc4)cc23)CC1 [Compound 115]
5 | 7990 | O=C(O)c1cccc(S(=O)(=O)N2CCC(c3c4cc(C(c5ccc(Cl)cc5)c5ccc(Cl)cc5)ccc4nn3C3CC3)CC2)c1 [Compound 116, 3-(4-(5-(bis(4-chlorophenyl)methyl)-2-cyclopropyl-2H-indazol-3-yl)piperidin-1-ylsulfonyl)benzoic acid]
9 | 1550 | O=C(O)c1ccc(S(=O)(=O)N2CCC(c3c4cc(C(c5ccc(Cl)cc5)c5ccc(Cl)cc5)ccc4nn3C3CC3)CC2)cc1 [Compound 117, 4-(4-(5-(bis(4-chlorophenyl)methyl)-2-cyclopropyl-2H-indazol-3-yl)piperidin-1-ylsulfonyl)benzoic acid]
4 | > 10000 | NC(=O)c1ccc(S(=O)(=O)N2CCC(c3c4cc(C(c5ccc(Cl)cc5)c5ccc(Cl)cc5)ccc4nn3C3CC3)CC2)cc1 [Compound 118, 4-(4-(5-(bis(4-chlorophenyl)methyl)-2-cyclopropyl-2H-indazol-3-yl)piperidin-1-ylsulfonyl)benzamide]
144 | > 10000 | COc1ccc(S(=O)(=O)N2CCC(Nc3n[nH]c4ccc(C(c5ccc(Cl)cc5)c5ccc(Cl)cc5)cc34)CC2)cc1 [Compound 119]
50 | > 10000 | NC(=O)c1ccc(S(=O)(=O)N2CCC(Nc3n[nH]c4ccc(C(c5ccc(Cl)cc5)c5ccc(Cl)cc5)cc34)CC2)cc1 [Compound 120]
375 | > 10000 | NC(=O)c1ccccc1S(=O)(=O)N1CCC(Nc2n[nH]c3ccc(C(c4ccc(Cl)cc4)c4ccc(Cl)cc4)cc23)CC1 [Compound 121]

EC50 [1] [nM] | EC50 [2] [nM] | SMILES
99 | > 10000 | NC(=O)c1cccc(S(=O)(=O)N2CCC(Nc3n[nH]c4ccc(C(c5ccc(Cl)cc5)c5ccc(Cl)cc5)cc34)CC2)c1 [Compound 122]
5800 | > 10000 | O=C(O)c1ccccc1S(=O)(=O)N1CCC(c2c3cc(C(c4ccc(Cl)cc4)c4ccc(Cl)cc4)ccc3nn2C2CC2)CC1 [Compound 123]
236 | > 10000 | NC(=O)c1ccccc1C(=O)N1CCC(c2c3cc(C(c4ccc(Cl)cc4)c4ccc(Cl)cc4)ccc3nn2C2CC2)CC1 [Compound 124]
135 | > 10000 | CS(=O)(=O)N1CCC(Nc2n[nH]c3ccc(C(c4ccc(Cl)cc4)c4ccc(Cl)cc4)cc23)CC1 [Compound 125]
617 | > 10000 | O=C(O)C(=O)N1CCC(c2c3cc(C(c4ccc(Cl)cc4)c4ccc(Cl)cc4)ccc3nn2C2CC2)CC1 [Compound 126]
4760 | > 10000 | O=C(O)CCC(=O)N1CCC(c2c3cc(C(c4ccc(Cl)cc4)c4ccc(Cl)cc4)ccc3nn2C2CC2)CC1 [Compound 127]
1220 | > 10000 | O=C(O)c1cccc(S(=O)(=O)N2CCC(Nc3n[nH]c4ccc(C(c5ccc(Cl)cc5)c5ccc(Cl)cc5)cc34)CC2)c1 [Compound 128]
203 | > 10000 | O=C(O)c1ccc(S(=O)(=O)N2CCC(Nc3n[nH]c4ccc(C(c5ccc(Cl)cc5)c5ccc(Cl)cc5)cc34)CC2)cc1 [Compound 129]
15 | > 10000 | O=S(=O)(c1ccc(O)cc1)N1CCC(Nc2n[nH]c3ccc(C(c4ccc(Cl)cc4)c4ccc(Cl)cc4)cc23)CC1 [Compound 130]
9500 | > 10000 | O=C(O)CS(=O)(=O)N1CCC(c2c3cc(C(c4ccc(Cl)cc4)c4ccc(Cl)cc4)ccc3nn2C2CC2)CC1 [Compound 131]
166 | > 10000 | O=C(CCO)N1CCC(c2c3cc(C(c4ccc(Cl)cc4)c4ccc(Cl)cc4)ccc3nn2C2CC2)CC1 [Compound 132]
3910 | > 10000 | O=C(O)CCS(=O)(=O)N1CCC(c2c3cc(C(c4ccc(Cl)cc4)c4ccc(Cl)cc4)ccc3nn2C2CC2)CC1 [Compound 133]
216 | > 10000 | NC(=O)CCS(=O)(=O)N1CCC(c2c3cc(C(c4ccc(Cl)cc4)c4ccc(Cl)cc4)ccc3nn2C2CC2)CC1 [Compound 134]
166 | > 10000 | O=C(O)CCC(=O)N1CCC(c2c3cc(C(c4ccc(Cl)cc4)c4ccc(Cl)cc4)ccc3nn2C2CC2)CC1 [Compound 135]
11 | > 10000 | O=S(=O)(N1CCC(c2c3cc(C(c4ccc(Cl)cc4)c4ccc(Cl)cc4)ccc3nn2C2CC2)CC1)C(F)(F)F [Compound 136, 5-(bis(4-chlorophenyl)methyl)-2-cyclopropyl-3-(1-(trifluoromethylsulfonyl)piperidin-4-yl)-2H-indazole]
158 | > 10000 | NC(=O)CS(=O)(=O)N1CCC(c2c3cc(C(c4ccc(Cl)cc4)c4ccc(Cl)cc4)ccc3nn2C2CC2)CC1 [Compound 137]
587 | > 10000 | NC(=O)C(=O)N1CCC(c2c3cc(C(c4ccc(Cl)cc4)c4ccc(Cl)cc4)ccc3nn2C2CC2)CC1 [Compound 138]
202 | > 10000 | NC(=O)c1ccccc1S(=O)(=O)N1CCC(c2c3cc(C(c4ccc(Cl)cc4)c4ccc(Cl)cc4)ccc3nn2C2CC2)CC1 [Compound 139]
